Broadly, the IC50 is the concentration that inhibits the measured activity by half.

This is an account of results in patent US20250122529A1, “POLYCISTRONIC VECTORS FOR CELL-BASED THERAPIES” (Sana Biotechnology, Inc., priority 2021, published 2025).

The subject of data set [1] is CyD-CD47 clones 2-G09 and 2-G11. Put plainly: CyD kill curve with 5-FC (cell count). In kind it is cell-based. The text has this: Hollow triangles represent iPSCs; filled triangles represent differentiated cells.
The bicistronic vector was used to transduce induced pluripotent stem cells (iPSCs), which were then allowed to differentiate. Differentiation of CyD-CD47-expressing clones in 2D was not affected by safety switch expression (data not shown here).

Another data set concerns control clone. Put plainly: GCV toxicity in control clone. The note with it: tested dose range. In kind it is cell-based.
Data set [2] relates to CD47-HSVtk clones. Put plainly: HSVtk kill curve with GCV (flow cytometry with counting beads). The note with it: various amounts of GCV; after three days. In kind it is cell-based. The text has this: Calculated IC50 and R square (R^2) values for each clone are also shown.
Data set [3] relates to CD47-HSVtk clones. The note with it: range reported in literature; IC50s in CD47-HSVtk clones generally comparable; cited from earlier work.
Another data set concerns the target CD22 (Homo sapiens, UniProt P20273). The following applies: affinity matured variant; read-out: CD22 binding affinity; cited from earlier work.

Regarding `Nc1nc(=O)[nH]cc1F` [Construct 5-FC, 5-fluorocytosine], in data set [1] (CyD in the presence of 5-FC, differentiated cells, clones 2-G09 and 2-G11), the killing entry is “more than 99%”. The IC50 entry in data set [1] (differentiated cells relative to iPSCs) is on record as “comparable IC50s relative to iPSCs”.
Turning to `Nc1nc(O)c2ncn(COC(CO)CO)c2n1` [GCV, ganciclovir], the GCV toxicity result in the data set on control clone is reported as “no GCV toxicity”. In addition, in the data set on CD47-HSVtk clones [2], the “HSVtk killing (viable cell count %)” value was “dose-response HSVtk killing was achieved”. In the data set with CD47-HSVtk clones [3], the 50% inhibitory concentration (IC50) was 10 to 100 nM.

B1: m971-L7: affinity matured variant of m971 (protein)
scFv: QVQLQQSGPGMVKPSQTLSLTCAISGDSVSSNSVAWNWIRQSPSRGLEWLGRTYYRSTWYNDYAVSMKSRITINPDTNKNQFSLQLNSVTPEDTAVYYCAREVTGDLEDAFDIWGQGTMVTVSSGGGGSGGGGSGGGGSDIQMIQSPSSLSASVGDRVTITCRASQTIWSYLNWYRQRPGEAPNLLIYAASSLQSGVPSRFSGRGSGTDFTLTISSLQAEDFATYYCQQSYSIPQTFGQGTKLEIK
modifications: Synthetic: Anti-CD22 m971-L7 scFv entire sequence, with 3xG4S linker
As to B1, in the data set with CD22, the Kd is less than 0.05 nM.
